For test [1], the target named is T1, Lactoylglutathione lyase (Homo sapiens, UniProt Q04760). Briefly: Inhibition of human recombinant His-tagged Glyoxalase 1 expressed in Sf21-Baculovirus system.
Target sequence in this assay (Q04760 whole entry): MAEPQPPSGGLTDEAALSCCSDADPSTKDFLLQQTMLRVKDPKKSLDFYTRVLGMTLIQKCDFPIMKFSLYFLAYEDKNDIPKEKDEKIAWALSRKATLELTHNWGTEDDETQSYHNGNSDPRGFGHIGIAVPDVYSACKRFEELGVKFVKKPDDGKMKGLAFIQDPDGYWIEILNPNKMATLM
Test [2] concerns the target T1, Lactoylglutathione lyase. Briefly: Inhibition of human recombinant His-tagged Glyoxalase 1 expressed in Sf21-Baculovirus system at 100 uM.
Target sequence in this assay (Q04760 2-184 limits assumed): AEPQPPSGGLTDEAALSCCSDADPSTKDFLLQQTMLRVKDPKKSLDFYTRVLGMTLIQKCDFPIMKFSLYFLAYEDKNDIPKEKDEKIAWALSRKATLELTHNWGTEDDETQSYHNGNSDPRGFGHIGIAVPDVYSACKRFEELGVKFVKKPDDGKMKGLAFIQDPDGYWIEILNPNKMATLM
In test [3] the test system is HL-60. Briefly: Antiproliferative activity against human HL60 cells at 30 uM after 48 hrs by MTS assay. In kind it is functional, cell-based. (Formazan colour is commonly taken as a measure of viable cells.)

Calls of active or inactive are those of the source. No cut-off for these calls is given here.

For the compound `O=c1c(O)c(-c2ccc(O)cc2)oc2cc(O)cc(O)c12` [KAEMPFEROL], the IC50 (as a rule, the concentration that inhibits the measured activity by half) in test [1] came to 20.6 µM. Moreover, the inhibition – broadly, the percentage by which the read-out fell short of the control – in test [2] was 60%. In addition, the result in test [3] was Active.
In the case of `COc1c(O[C@H]2O[C@H](C(=O)O)[C@@H](O)[C@H](O)[C@H]2O)cc2oc(-c3ccccc3)cc(=O)c2c1O`, in test [3], the outcome was Active.
Same read-out and setting: then `O=c1c(O[C@@H]2O[C@H](CO)[C@H](O)[C@H](O)[C@H]2O)c(-c2ccc(O)c(O)c2)oc2cc(O)cc(O)c12`, with “Active”.
With `O=c1cc(-c2ccc(O)c(O)c2)oc2cc(O)cc(O)c12` [LUTEOLIN], the IC50 in test [1] came out at 7.7 µM. Also, in test [3], the result was Active.
For `O=C(O)[C@H]1O[C@@H](Oc2cc3oc(-c4ccccc4)cc(=O)c3c(O)c2O)[C@H](O)[C@@H](O)[C@@H]1O`, in test [3], the result was Active.
Take `O=C1C[C@@H](c2ccc(O)cc2)Oc2cc(O)cc(O)c21`: the inhibition in test [2] came to 50%. In addition, the outcome in test [3] was Active.
As for `N[C@@H](CCC(=O)N[C@@H](CSCc1ccc(Br)cc1)C(=O)NCC(=O)OC1CCCC1)C(=O)OC1CCCC1`, the result in test [3] was Active.
As to `O=c1cc(-c2ccccc2)oc2cc(O)c(O)c(O)c12` [BAICALEIN], the IC50 in test [1] turned out to be 11 µM. For the same compound, the outcome in test [3] was Active.
For the compound `O=c1c(O)c(-c2cc(O)c(O)c(O)c2)oc2cc(O)cc(O)c12`, the result in test [3] was Active.
On the same count and under the same terms, as for `O=c1c(O)c(-c2ccc(O)c(O)c2)oc2cc(O)cc(O)c12`, the entry is “Active”.

Values taken from ChEMBL document CHEMBL1157146, “Structure-activity relationship of human GLO I inhibitory natural flavonoids and their growth inhibitory effects” (Bioorg Med Chem, 2008).
